Experimental data as given in ChEMBL document CHEMBL5385943, “Synthesis, biological evaluation and molecular docking study of pyrimidine linked thiazolidinedione derivatives as potential antimicrobial and antitubercular agents” (Bioorg Med Chem Lett, 2024).
Values after ≈ are worked out from the molar mass of the structure shown. Active and inactive are the calls of the source. The calls are words filed in the database; no cut-off is given here.

What was measured:
Staphylococcus aureus [1] = experiment: Antimicrobial activity against Staphylococcus aureus assessed as reduction in microbial growth; type: functional
Staphylococcus aureus [2] = experiment: Antimicrobial activity against methicillin-resistant Staphylococcus aureus assessed as reduction in microbial growth; type: functional
Bacillus subtilis = experiment: Antimicrobial activity against Bacillus subtilis assessed as reduction in microbial growth; type: functional
Escherichia coli [3] = experiment: Antimicrobial activity against Escherichia coli assessed as reduction in microbial growth; type: functional
Candida albicans = experiment: Antimicrobial activity against Candida albicans assessed as reduction in microbial growth; type: functional
[4] = tested on: Mycobacterium tuberculosis; experiment: Antitubercular activity against Mycobacterium tuberculosis H37Rv by agar dilution method; type: functional
[5] = Cytotoxicity against human WI-38 cells assessed as reduction in cell growth; type: toxicity, cell-based
[6] = Selectivity index, ratio of CC50 for human WI-38 cells to MIC for Mycobacterium tuberculosis H37Rv; type: toxicity; conditions: read-out: Selectivity Index
Staphylococcus aureus [7] = experiment: Antibacterial activity against methicillin resistant Staphylococcus aureus at 1 times MIC measured after 120 to 150 mins by time kill assay; type: functional, organism-based; conditions: time 120-150 min
Escherichia coli [8] = experiment: Antibacterial activity against Escherichia coli at 1 times MIC measured after 120 to 150 mins by time kill assay; type: functional, organism-based; conditions: time 120-150 min
Staphylococcus aureus [9] = experiment: Antibacterial activity against methicillin resistant Staphylococcus aureus at 1 times MIC measured after 150 mins by time kill assay; type: functional, organism-based
Staphylococcus aureus [10] = experiment: Antibacterial activity against methicillin resistant Staphylococcus aureus at 1 times MIC measured after 180 mins by time kill assay; type: functional, organism-based
Escherichia coli [11] = experiment: Antibacterial activity against Escherichia coli at 1 times MIC measured after 150 mins by time kill assay; type: functional, organism-based

| Molecule | MIC (Staphylococcus aureus [1]) [µM] | MIC (Staphylococcus aureus [2]) [µM] | MIC (Bacillus subtilis) [µM] | MIC (Escherichia coli [3]) [µM] | MIC (Candida albicans) [µM] | MIC [4] [µM] | CC50 [5] [µM] | selectivity ratio [6] | Activity (Staphylococcus aureus [7]) | Activity (Escherichia coli [8]) | Activity (Staphylococcus aureus [9]) | Activity (Staphylococcus aureus [10]) | Activity (Escherichia coli [11]) |
| --- | --- | --- | --- | --- | --- | --- | --- | --- | --- | --- | --- | --- | --- |
| O=C1S/C(=C\c2cnc(C(F)(F)F)nc2)C(=O)N1C(=O)c1ccc(Cl)cc1 | 16.8 | 36.4 | 14.4 | 17.8 | 19.4 | 4.83 (≈ 2 µg/mL) | > 50 | 10.3 | – | – | – | – | – |
| NNC(=O)c1ccncc1 [ISONIAZID] | – | – | – | – | – | 0.35 (≈ 0.048 µg/mL) | > 50 | 143 | – | – | – | – | – |
| OC(Cn1cncn1)(Cn1cncn1)c1ccc(F)cc1F [FLUCONAZOLE] | – | – | – | – | 14.9 | – | – | – | – | – | – | – | – |
| Cc1ccc(C(=O)N2C(=O)S/C(=C\c3cnc(C(F)(F)F)nc3)C2=O)cc1 | 30.6 | 71.8 | 24.9 | 35.8 | 41.3 | 8.49 (≈ 3.34 µg/mL) | > 50 | 5.89 | – | – | – | – | – |
| O=C1S/C(=C\c2cnc(C(F)(F)F)nc2)C(=O)N1C(=O)c1ccc(Br)cc1 | 20.7 | 48.2 | 17.3 | 22.6 | 4.7 | 6.12 (≈ 2.8 µg/mL) | > 50 | 8.17 | – | – | – | – | – |
| O=C1S/C(=C\c2cnc(C(F)(F)F)nc2)C(=O)N1C(=O)c1ccccc1 | 27.1 | 62.5 | 19.5 | 28.3 | 30.6 | 5.62 (≈ 2.13 µg/mL) | > 50 | 8.89 | – | – | – | – | – |
| O=C1S/C(=C\c2cnc(C(F)(F)F)nc2)C(=O)N1C(=O)c1ccc(C(F)(F)F)cc1 | 6.4 | 10.8 | 6.1 | 8.4 | 8.1 | 0.22 (≈ 0.0984 µg/mL) | > 50 | 227 | Active | Active | – | – | – |
| CN[C@@H]1[C@H](O[C@H]2[C@H](O[C@H]3[C@H](O)[C@@H](O)[C@H](N=C(N)N)[C@@H](O)[C@@H]3N=C(N)N)O[C@@H](C)[C@]2(O)C=O)O[C@@H](CO)[C@H](O)[C@H]1O [STREPTOMYCIN] | 11.9 | – | 11.5 | 14.3 | – | – | – | – | – | – | – | – | – |
| O=C1S/C(=C\c2cnc(C(F)(F)F)nc2)C(=O)N1C(=O)c1ccc([N+](=O)[O-])cc1 | 10.9 | 24.1 | 10.2 | 11.7 | 12.9 | 1.06 (≈ 0.45 µg/mL) | > 50 | 47.2 | – | – | – | – | – |
| GENTAMICIN | – | – | – | – | – | – | – | – | – | – | inactive | – | – |
| O=C1S/C(=C\c2cnc(C(F)(F)F)nc2)C(=O)N1C(=O)c1cc(F)c(F)c(F)c1 | 8.6 | 15.4 | 8.1 | 9.7 | 9.5 | 0.32 (≈ 0.139 µg/mL) | > 50 | 156 | – | – | – | Active | Active |
| O=C1S/C(=C\c2cnc(C(F)(F)F)nc2)C(=O)N1C(=O)c1ccc(F)cc1 | 13.7 | 31.7 | 12.8 | 15.1 | 16.8 | 3.25 (≈ 1.29 µg/mL) | > 50 | 15.4 | – | – | – | – | – |
| O=C1S/C(=C\c2cnc(C(F)(F)F)nc2)C(=O)N1C(=O)c1cc(F)cc(F)c1 | 10.3 | 21.9 | 9.7 | 11.2 | 11.8 | 0.71 (≈ 0.295 µg/mL) | > 50 | 70.4 | – | – | – | – | – |
| O=C1S/C(=C\c2cnc(C(F)(F)F)nc2)C(=O)N1C(=O)c1ccc(O)cc1 | 37.4 | 79.2 | 28.3 | 40.9 | 53.7 | 10.9 (≈ 4.31 µg/mL) | > 50 | 4.58 | – | – | – | – | – |
| CC(=O)NC[C@H]1CN(c2ccc(N3CCOCC3)c(F)c2)C(=O)O1 [LINEZOLID] | – | 23.1 | – | – | – | – | – | – | – | – | – | – | – |
